# Experimental data from patent publication US12338214B2, “Bexarotene derivatives and their use in treating cancer” (DJ THERAPEUTICS LLC, priority 2018, dated 2025).
# Key:
# MV4;11 cells = assay: Cell count activity in MV4;11 cells; format: cell-based, human; settings: 5 days, FIG. 5
# Protocol: (§1) NB4 cells or MV4;11 cells were grown in RPMI, 10% fetal bovine serum and plated at a density of 25,000 cells/mL in presence or absence of compound of the disclosure (dissolved in DMSO) for 5 days. Cells were counted manually on a light microscope using a hemocytometer and Trypan blue exclusion or on the Nexcelom Cellometer Auto 2000 using Cellometer Viastain AOPI staining solution (Nexcelom CS2-0106).
# NB4 cells = assay: Cell count activity in NB4 cells; format: cell-based, human; settings: 5 days, FIG. 4
# Protocol: as §1
SMILES,reduction in cell counts (MV4;11 cells),reduction in cell counts (NB4 cells)
"CC1=C(/C=C/C(C)=C/C=C/C(C)=C/C(=O)O)C(C)(C)CCC1 [ATRA, all-trans retinoic acid]",dose dependent reduction in cell counts,–
C=C(c1ccc(C(=O)O)cc1)c1cc2c(cc1C)C(C)(C)CCC2(C)C [bexarotene],–,dose dependent reduction in cell counts
